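Cultured in 96-well plates, cells were exposed to test compound for 48 hours across five concentrations. GI50 marks 50% less growth.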 The source made the active and inactive calls. Rule as the data show it: active = GI50 up to about 1.1 µM and inactive = higher.
Legend:
Experiment in all cases: DTP human tumour cell line panel, 48 h
OVCAR-3 = test system: OVCAR-3
PC-3 = test system: PC-3
SF-295 = test system: SF-295
SR = test system: SR
NCI/ADR-RES = test system: NCI/ADR-RES
SK-MEL-5 = test system: SK-MEL-5
SW-620 = test system: SW-620
MDA-MB-435 = test system: MDA-MB-435
OVCAR-8 = test system: OVCAR-8
A498 = test system: A498
CCRF-CEM = test system: CCRF-CEM
K562 = test system: K562
MDA-MB-231 = test system: MDA-MB-231
MOLT-4 = test system: MOLT-4
EKVX = test system: EKVX
ACHN = test system: ACHN
NCI-H226 = test system: NCI-H226
HL-60 = test system: HL-60
NCI-H460 = test system: NCI-H460
SF-539 = test system: SF-539

Measured: GI50

Oc1c(/N=N\c2ccccc2)c2cccc3ccc4cccc1c4c32
inactive: OVCAR-3 > 100 µM | PC-3 > 100 µM | SF-295 81.7 µM | SR 20.9 µM | NCI/ADR-RES > 100 µM | SK-MEL-5 > 100 µM | SW-620 > 100 µM | MDA-MB-435 > 100 µM | OVCAR-8 40.2 µM | A498 > 100 µM | CCRF-CEM > 100 µM | K562 > 100 µM | MDA-MB-231 94.4 µM | MOLT-4 > 100 µM | EKVX > 100 µM | ACHN 26.8 µM | NCI-H226 > 100 µM

CC(C)(NO)/C(=N\O)c1ccccc1
inactive: OVCAR-3 > 10 µM | PC-3 > 10 µM | SF-295 > 10 µM | HL-60 > 10 µM | SR > 10 µM | NCI/ADR-RES > 10 µM | SW-620 > 10 µM | MDA-MB-435 > 10 µM | OVCAR-8 > 10 µM | CCRF-CEM > 10 µM | K562 > 10 µM | MDA-MB-231 > 10 µM | MOLT-4 > 10 µM | EKVX > 10 µM | ACHN > 10 µM | NCI-H460 > 10 µM | NCI-H226 > 10 µM

CC(C)(Br)C(=O)C(Br)Br
inactive: OVCAR-3 6.89 µM | SF-539 > 33.2 µM | PC-3 5.4 µM | SF-295 18.7 µM | HL-60 1.9 µM | NCI/ADR-RES 4.82 µM | SK-MEL-5 12.4 µM | SW-620 1.89 µM | MDA-MB-435 5.58 µM | OVCAR-8 5.27 µM | A498 > 39.8 µM | CCRF-CEM 1.51 µM | K562 2.95 µM | MDA-MB-231 5.56 µM | MOLT-4 1.67 µM | EKVX 13.8 µM | ACHN 10.5 µM | NCI-H460 18.1 µM | NCI-H226 16.7 µM

COc1ccc(-n2cnc3c(NC(CCSC)C(=O)O)ncnc32)cc1 (stereo unspecified)
inactive: OVCAR-3 > 100 µM | PC-3 > 100 µM | SF-295 > 100 µM | SR > 100 µM | NCI/ADR-RES > 100 µM | SK-MEL-5 > 100 µM | SW-620 > 100 µM | MDA-MB-435 > 100 µM | OVCAR-8 > 100 µM | A498 > 100 µM | CCRF-CEM > 100 µM | K562 > 100 µM | MDA-MB-231 > 100 µM | MOLT-4 > 100 µM | EKVX > 100 µM | ACHN > 100 µM | NCI-H460 > 100 µM | NCI-H226 > 100 µM

COc1ccccc1/C=C1\Sc2scc(-c3ccc(O)c(O)c3)[n+]2C1=O
inactive: OVCAR-3 16.6 µM | SF-539 20.7 µM | PC-3 28.2 µM | SF-295 24.9 µM | HL-60 2.28 µM | SR 6.67 µM | NCI/ADR-RES 27.3 µM | SK-MEL-5 18.1 µM | SW-620 15.9 µM | MDA-MB-435 27.2 µM | OVCAR-8 39.9 µM | CCRF-CEM 2.57 µM | K562 9.51 µM | MDA-MB-231 20 µM | MOLT-4 13.9 µM | EKVX 46.6 µM | ACHN 16.7 µM | NCI-H460 18.8 µM | NCI-H226 27.9 µM

CCCCCCNC(=O)c1cnc(Cl)cn1
inactive: SF-539 17.6 µM | PC-3 5.51 µM | SF-295 18.1 µM | HL-60 23.8 µM | SR 4.3 µM | NCI/ADR-RES 15.6 µM | SK-MEL-5 16.8 µM | SW-620 15.1 µM | MDA-MB-435 15.6 µM | OVCAR-8 12.4 µM | CCRF-CEM 13.7 µM | K562 13 µM | MDA-MB-231 16.7 µM | MOLT-4 4.82 µM | EKVX 5.93 µM | ACHN 2.36 µM | NCI-H460 19.3 µM | NCI-H226 10 µM

Cc1ccc(-c2n[nH]c(=O)n2NC(=O)c2ccccc2C(=O)O)cc1
inactive: OVCAR-3 > 100 µM | SF-539 > 100 µM | PC-3 > 100 µM | SF-295 > 100 µM | HL-60 > 100 µM | SR > 100 µM | NCI/ADR-RES > 100 µM | SK-MEL-5 > 100 µM | SW-620 > 100 µM | MDA-MB-435 > 100 µM | OVCAR-8 > 100 µM | K562 > 100 µM | MDA-MB-231 > 100 µM | MOLT-4 > 100 µM | ACHN > 100 µM | NCI-H460 > 100 µM | NCI-H226 > 100 µM

COC(=O)C1=C(C)NC(C)=C(C(=O)OC)C1c1ccc(/[N+]([O-])=C/c2ccccc2)cc1
inactive: OVCAR-3 18.9 µM | SF-539 > 100 µM | PC-3 64.1 µM | SF-295 46.9 µM | HL-60 15.1 µM | SR 24.1 µM | NCI/ADR-RES 66.5 µM | SK-MEL-5 > 100 µM | SW-620 20 µM | MDA-MB-435 30.4 µM | OVCAR-8 19.7 µM | CCRF-CEM 17 µM | K562 23.6 µM | MDA-MB-231 41.1 µM | MOLT-4 24.1 µM | EKVX 71.6 µM | ACHN 17.4 µM | NCI-H460 66.8 µM | NCI-H226 62.4 µM

COc1ccc2c(c1)OCC1(O)Cc3ccccc3OC21 (stereo unspecified)
inactive: OVCAR-3 > 100 µM | SF-539 > 100 µM | PC-3 > 100 µM | SF-295 > 100 µM | SR > 100 µM | NCI/ADR-RES > 100 µM | SK-MEL-5 > 100 µM | SW-620 > 100 µM | MDA-MB-435 > 100 µM | OVCAR-8 > 100 µM | A498 > 100 µM | CCRF-CEM > 100 µM | K562 > 100 µM | MDA-MB-231 > 100 µM | MOLT-4 78.9 µM | EKVX > 100 µM | ACHN > 100 µM | NCI-H226 > 100 µM

c1ccc(Cn2c(-c3ccc(-c4ccccc4)cc3)cc3ccccc32)cc1
inactive: OVCAR-3 > 100 µM | SF-539 > 100 µM | PC-3 > 100 µM | SF-295 > 100 µM | HL-60 > 100 µM | SR > 100 µM | NCI/ADR-RES > 100 µM | SK-MEL-5 > 100 µM | SW-620 > 100 µM | MDA-MB-435 > 100 µM | OVCAR-8 > 100 µM | CCRF-CEM > 100 µM | MDA-MB-231 > 100 µM | MOLT-4 > 100 µM | EKVX > 100 µM | ACHN > 100 µM | NCI-H460 > 100 µM | NCI-H226 > 100 µM

Clc1ccc(C(c2ccc(Cl)cc2)c2cncnc2)cc1
inactive: OVCAR-3 14.7 µM | PC-3 14.2 µM | SF-295 17.9 µM | HL-60 22.9 µM | SR 31.8 µM | NCI/ADR-RES 18.7 µM | SK-MEL-5 13.2 µM | MDA-MB-435 13.7 µM | OVCAR-8 20.3 µM | CCRF-CEM 17.5 µM | K562 21.9 µM | MDA-MB-231 17.7 µM | MOLT-4 20.6 µM | EKVX > 10 µM | ACHN 19.2 µM | NCI-H460 17.6 µM

Source: ChEMBL document CHEMBL1201862, “PubChem BioAssay data set” (2004)
